Key:
Type in all cases: cell-based
HCV genotype 1a replicon = assay: Anti-HCV-1a replicon activity (luciferase, Bright-Glo); settings: Hepatitis C virus, Huh-7, 72 h, read-out: EC50 against HCV-1a replicon
Procedure: (§1) 1) Preparation of compounds: adding 75 μl of the compounds of the present invention at the above concentration gradient to a 96-well plate using POD810 system, with each concentration for each compound in duplicate;
(§2) 2) Preparation of cells: collecting HCV 1b replicon cells in logarithmic phase and resuspending them in DMEM complete medium, and then adding 75 μl of the cell suspension to each well of the above 96-well plate (8×10^3 cells/well); at the same time, establishing zero percent effect (ZPE) control group and hundred percent effect (HPE) control group, with ZPE group using complete culture medium containing 0.5% DMSO instead of the compound, and the HPE group merely containing DMEM medium in the wells.
(§3) 3) Cell culture: placing the 96-well plate in a 37° C., 5% CO2 incubator and culturing for 3 days.
(§4) 5) Anti-HCV replicon activity assay: adding luciferase luminescence substrate Bright-Glo to each well, and detecting luminescence signal values using the multimode microplate reader within 5 min, with the raw data (RLU) being used for calculation of the anti-HCV activities of the compounds;
(§5) 6) Data processing: processing the raw data using the following formula into the inhibition percentage of the compound against HCV replicon (Inhibition %) and the percentage of cell viability (Viability %): Inhibition %=(RLUZPE−RLUCPD)/(RLUZPE−RLUHPE)×100 Viability %=(RFUCPD−RFUHPE)/(RFUZPE−RFUHPE)×100 wherein CPD: the fluorescence signal value of the well of the compound; ZPE (zero percent effect): the fluorescence signal value of the zero percent effect control; HPE (hundred percent effect): the fluorescence signal value of the hundred percent effect control.
(§6) The Inhibition % and Viability % were introduced into GraphPad Prism software for data processing, respectively, to obtain the half effective concentration EC50 of the compound against HCV replicon and the half cytotoxic concentration CC50.
(§7) HCV 1a replicon cells, i.e., Huh7 cell line stably transfected with HCV genotype 1a replicon (provided by WuXi AppTec (Shanghai) Co., Ltd.) were used as the experimental cells. As described above for the HCV 1b replicon cell system, the HCV genotype 1a replicon cell systems were similarly prepared.
(§8) The anti-HCV-1a activities of the compounds of the present invention were tested according to the method for testing the anti-HCV-1b replicon activity in Experimental Example 1.

[1] = Cell viability test (CellTiter-Fluor) in HCV 1a replicon cells; settings: human, Huh7 cells stably transfected with HCV genotype 1a replicon; HCV 1a replicon Huh7 cells, 3 days culture; read-out: CC50 (half cytotoxic concentration)
Procedure: (§9) 4) Cell viability test: after adding detection reagent for fluorescence assay of cell growth to each well and culturing the cells in a 37° C., 5% CO2 incubator for one hour, detecting the fluorescence signal values using the multimode microplate reader, with the raw data (RFU) being used for calculation of the cytotoxicity of the compounds;
as §5, §6, §7, §8

HCV genotype 1b replicon = assay: Anti-HCV-1b replicon activity (luciferase, Bright-Glo); settings: Hepatitis C virus, Huh-7, 72 h, read-out: EC50 against HCV-1b replicon
Procedure: (§10) Each of the compounds prepared in the above examples of the present invention was dissolved at 10 mM in DMSO, then diluted to 50 μM with DMEM complete medium, then diluted to 20 nM with complete medium containing 0.5% DMSO, and then serially diluted by 3-fold, to obtain a total of 10 concentrations.
(§11) HCV 1b replicon cells, i.e., Huh7 cell line stably transfected with HCV genotype 1b replicon, were provided by WuXi AppTec (Shanghai) Co., Ltd. Specific preparation methods of Huh7 lb replicon cell system can be found in Lohmann V, Korner F, Koch J, Herian U, Theilmann L, Bartenschlager R., Replication of subgenomic hepatitis C virus RNAs in a hepatoma cell line, Science 285 (5424): 110-113 (1999).
as §1, §2, §3, §4, §5, §6

[2] = Cell viability test (CellTiter-Fluor) in HCV 1b replicon cells; settings: human, Huh7 cells stably transfected with HCV genotype 1b replicon; HCV 1b replicon Huh7 cells, 3 days culture; read-out: CC50 (half cytotoxic concentration)
Procedure: as §10, §11, §1, §2, §3, §9, §5, §6

SMILES: COC(=O)N[C@H](C(=O)N1CCC[C@H]1c1ncc(-c2ccc3c(c2)C(F)(F)C(F)(F)c2cc(-c4cnc([C@@H]5CC6(CN5C(=O)[C@@H](NC(=O)OC)C(C)C)OCCO6)[nH]4)ccc2-3)[nH]1)C(C)C [Example 14, Methyl N-((2S)-1-((S)-2-(5-(7-((S)-2-(7-((S)-2-((methoxycarbonyl)amino)-3-methylbutanoyl)-1,4-dioxa-7-azaspiro[4.4]nonan-8-yl)-1H-imidazol-5-yl)-9,9,10,10-tetrafluoro-9,10-dihydrophenanthren-2-yl)-1H-imidazol-2-yl)pyrrolidin-1-yl)-3-methyl-1-oxobutan-2-yl)carbamate]
- EC50 (HCV genotype 1a replicon): 150 pM
- CC50 at 3 days [1]: > 10000 pM
- EC50 (HCV genotype 1b replicon): 6 pM
- CC50 at 3 days [2]: > 10000 pM

SMILES: COC(=O)N[C@H](C(=O)N1CC2(C[C@H]1c1ncc(-c3ccc4c(c3)C(F)(F)C(F)(F)c3cc(-c5cnc([C@@H]6CC7(CN6C(=O)[C@@H](NC(=O)OC)C(C)C)OCCO7)[nH]5)ccc3-4)[nH]1)OCCO2)C(C)C [Example 17, Dimethyl ((2S,2′S)-((2S,2′S)-2,2′-(5,5′-(9,9,10,10-tetrafluoro-9,10-dihydrophenanthren-2,7-diyl)bis(1H-imidazol-5,2-diyl))bis(1,4-dioxa-7-azaspiro[4.4]nonan-7,8-diyl))bis(3-methyl-1-oxobutan-2,1-diyl))dicarbamate]
- EC50 (HCV genotype 1a replicon): 175 pM
- CC50 at 3 days [1]: > 10000 pM
- EC50 (HCV genotype 1b replicon): 7 pM
- CC50 at 3 days [2]: > 10000 pM

Source: US9512108B2, “9,9,10,10-Tetrafluoro-9,10-dihydrophenanthrene hepatitis C virus inhibitor and application thereof” (NANJING SANHOME PHARMACEUTICAL CO., LTD., priority 2013, dated 2016)
